# From patent US8143393B2, “Substituted 4-amino-pyrrolotriazine derivatives useful for treating hyper-proliferative disorders and diseases associated with angiogenesis” (Bayer HealthCare LLC, priority 2005, dated 2012)
# Molecular target: T1, FGFR-1 (Homo sapiens, UniProt P11362)
# T1 construct: GST; made in house
# Test: FGFR-1 TR-FRET biochemical assay
# Conditions: 0.6 uM ATP, 5 nM FGFR1-GST; bounds given in nM
# Outline: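 In this LANCE time-resolved FRET format, compounds at final 10 μM–0.128 nM (1% DMSO, 1:5 series) were preincubated before enzyme start. Reactions ran for one hour at room temperature with 0.6 uM ATP, 25 nM biotinylated poly GT and 5 nM GST-tagged FGFR1. Inhibition was calculated from the 665/615 nm ratio minus the ATP-free background.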
# T1 sequence (P11362 22-822): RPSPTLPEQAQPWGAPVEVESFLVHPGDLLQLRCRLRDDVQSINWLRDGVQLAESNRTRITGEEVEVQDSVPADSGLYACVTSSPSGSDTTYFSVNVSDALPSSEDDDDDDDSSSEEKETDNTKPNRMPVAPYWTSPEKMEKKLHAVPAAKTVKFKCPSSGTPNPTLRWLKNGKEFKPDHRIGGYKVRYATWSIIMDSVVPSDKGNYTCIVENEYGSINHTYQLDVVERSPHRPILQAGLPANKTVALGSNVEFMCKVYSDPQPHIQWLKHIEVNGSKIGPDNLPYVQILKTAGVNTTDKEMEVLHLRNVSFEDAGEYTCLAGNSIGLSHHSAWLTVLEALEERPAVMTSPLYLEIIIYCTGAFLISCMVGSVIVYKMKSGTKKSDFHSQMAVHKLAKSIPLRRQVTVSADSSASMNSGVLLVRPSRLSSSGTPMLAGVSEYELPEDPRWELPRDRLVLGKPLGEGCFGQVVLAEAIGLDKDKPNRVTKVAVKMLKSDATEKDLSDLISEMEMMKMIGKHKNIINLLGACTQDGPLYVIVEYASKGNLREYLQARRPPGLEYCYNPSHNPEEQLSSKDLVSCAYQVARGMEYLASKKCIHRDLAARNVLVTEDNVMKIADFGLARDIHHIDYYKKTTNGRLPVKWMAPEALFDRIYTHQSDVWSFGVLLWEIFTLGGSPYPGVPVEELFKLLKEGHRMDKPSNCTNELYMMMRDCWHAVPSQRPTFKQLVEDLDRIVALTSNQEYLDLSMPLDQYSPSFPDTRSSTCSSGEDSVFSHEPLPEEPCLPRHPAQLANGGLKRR
row,IC50 [nM],Compound
1,< 10,"Nc1ncnn2c(CN3CCCOCC3)cc(-c3ccc(NC(=O)Nc4cc(C(F)(F)F)ccc4F)cc3)c12 [Example 167, N-{4-[4-amino-7-(1,4-oxazepan-4-ylmethyl)pyrrolo[2,1-f][1,2,4]triazin-5-yl]phenyl}-N′-[2-fluoro-5-(trifluoromethyl)phenyl]urea]"
2,< 10,"Nc1ncnn2c(CN3CCCOCC3)cc(-c3cc(F)c(NC(=O)Nc4cc(C(F)(F)F)ccc4F)cc3F)c12 [Example 168, N-{4-[4-amino-7-(1,4-oxazepan-4-ylmethyl)pyrrolo[2,1-f][1,2,4]triazin-5-yl]-2,5-difluorophenyl}-N′-[2-fluoro-5-(trifluoromethyl)phenyl]urea]"
3,< 10,"Nc1ncnn2c(C3CCN(C(=O)CO)CC3)cc(-c3ccc(NC(=O)Nc4cc(C(F)(F)F)ccc4F)c(Cl)c3)c12 [Example 173, N-{4-[4-amino-7-(1-glycoloylpiperidin-4-yl)pyrrolo[2,1-f][1,2,4]triazin-5-yl]-2-chlorophenyl}-N′-[2-fluoro-5-(trifluoromethyl)phenyl]urea]"
4,< 10,"Nc1ncnn2c(CN3CCCOCC3)cc(-c3ccc(NC(=O)Nc4cc(C(F)(F)F)ccn4)cc3)c12 [Example 176, N-{4-[4-amino-7-(1,4-oxazepan-4-ylmethyl)pyrrolo[2,1-f][1,2,4]triazin-5-yl]phenyl}-N′-[4-(trifluoromethyl)pyridin-2-yl]urea]"
5,< 10,"Nc1ncnn2c(CN3CCCOCC3)cc(-c3ccc(NC(=O)Nc4cc(C(F)(F)F)ccc4F)c(F)c3)c12 [Example 177, N-{4-[4-amino-7-(1,4-oxazepan-4-ylmethyl)pyrrolo[2,1-f][1,2,4]triazin-5-yl]-2-fluorophenyl}-N′-[2-fluoro-5-(trifluoromethyl)phenyl]urea]"
6,< 10,"Nc1ncnn2c(CN3CCCOCC3)cc(-c3ccc(NC(=O)Nc4cc(C(F)(F)F)ccn4)c(F)c3)c12 [Example 179, N-{4-[4-amino-7-(1,4-oxazepan-4-ylmethyl)pyrrolo[2,1-f][1,2,4]triazin-5-yl]-2-fluorophenyl}-N′-[4-(trifluoromethyl)pyridin-2-yl]urea]"
7,< 10,"Cc1cc(-c2cc(CN3CCCOCC3)n3ncnc(N)c23)ccc1NC(=O)Nc1cc(C(F)(F)F)ccn1 [Example 180, 1-{4-[4-amino-7-(1,4-oxazepan-4-ylmethyl)pyrrolo[2,1-f][1,2,4]triazin-5-yl]-2-methylphenyl}-3-[4-(trifluoromethyl)pyridin-2-yl]urea]"
8,< 10,"Cc1cc(-c2cc(CN3CCCOCC3)n3ncnc(N)c23)ccc1NC(=O)Nc1cc(C(F)(F)F)ccc1F [Example 181, N-{4-[4-amino-7-(1,4-oxazepan-4-ylmethyl)pyrrolo[2,1-f][1,2,4]triazin-5-yl]-2-methylphenyl}-N′-[2-fluoro-5-(trifluoromethyl)phenyl]urea]"
9,< 10,"COC[C@@H]1CCCN1CCCc1cc(-c2ccc(NC(=O)Nc3cc(C(F)(F)F)ccc3F)c(F)c2)c2c(N)ncnn12 [Example 184, N-[4-(4-amino-7-{3-[(2S)-2-(methoxymethyl)pyrrolidin-1-yl]propyl}pyrrolo[2,1-f][1,2,4]triazin-5-yl)-2-fluorophenyl]-N′-[2-fluoro-5-(trifluoromethyl)phenyl]urea]"
10,< 10,"Nc1ncnn2c(CCCN3CCCC3)cc(-c3ccc(NC(=O)Nc4cc(C(F)(F)F)ccc4F)c(F)c3)c12 [Example 186, N-{4-[4-amino-7-(3-pyrrolidin-1-ylpropyl)pyrrolo[2,1-f][1,2,4]triazin-5-yl]-2-fluorophenyl}-N′-[2-fluoro-5-(trifluoromethyl)phenyl]urea]"
11,< 10,"CN1CCN(CCCc2cc(-c3ccc(NC(=O)Nc4cc(C(F)(F)F)ccc4F)c(F)c3)c3c(N)ncnn23)CC1 [Example 187, N-(4-{4-amino-7-[3-(4-methylpiperazin-1-yl)propyl]pyrrolo[2,1-f][1,2,4]triazin-5-yl}-2-fluorophenyl)-N′-[2-fluoro-5-(trifluoromethyl)phenyl]urea]"
